What was measured:
Details in all cases: 72 h
Caco-2 [1] = experiment: cell viability relative to DMSO; higher = less toxic
Calu-3 [2] = experiment: as above
HepG2 [3] = experiment: as above
U2OS [4] = experiment: as above
Vero E6 [5] = experiment: as above
Caco-2 [6] = experiment: relative viability EC50 (midpoint between 100% and the lowest measured viability); higher = less toxic
Calu-3 [7] = experiment: as above
HepG2 [8] = experiment: as above
U2OS [9] = experiment: as above
Vero E6 [10] = experiment: as above
Caco-2 [11] = experiment: drug sensitivity score (DSS) for viability; higher = more toxic; extreme values may be limits of the assay
Calu-3 [12] = experiment: as above
HepG2 [13] = experiment: as above
U2OS [14] = experiment: as above
Vero E6 [15] = experiment: as above

SMILES | cell viability (Caco-2 [1]; 1 nM) | cell viability (Caco-2 [1]; 10 nM) | cell viability (Caco-2 [1]; 100 nM) | cell viability (Caco-2 [1]; 1000 nM) | cell viability (Caco-2 [1]; 10000 nM) | cell viability (Calu-3 [2]; 1 nM) | cell viability (Calu-3 [2]; 10 nM) | cell viability (Calu-3 [2]; 100 nM) | cell viability (Calu-3 [2]; 1000 nM) | cell viability (Calu-3 [2]; 10000 nM) | cell viability (HepG2 [3]; 1 nM) | cell viability (HepG2 [3]; 10 nM) | cell viability (HepG2 [3]; 100 nM) | cell viability (HepG2 [3]; 1000 nM) | cell viability (HepG2 [3]; 10000 nM) | cell viability (U2OS [4]; 1 nM) | cell viability (U2OS [4]; 10 nM) | cell viability (U2OS [4]; 100 nM) | cell viability (U2OS [4]; 1000 nM) | cell viability (U2OS [4]; 10000 nM) | cell viability (Vero E6 [5]; 1 nM) | cell viability (Vero E6 [5]; 10 nM) | cell viability (Vero E6 [5]; 100 nM) | cell viability (Vero E6 [5]; 1000 nM) | cell viability (Vero E6 [5]; 10000 nM) | relative viability EC50 (Caco-2 [6]) | relative viability EC50 (Calu-3 [7]) | relative viability EC50 (HepG2 [8]) | relative viability EC50 (U2OS [9]) | relative viability EC50 (Vero E6 [10]) | drug sensitivity score (Caco-2 [11]) | drug sensitivity score (Calu-3 [12]) | drug sensitivity score (HepG2 [13]) | drug sensitivity score (U2OS [14]) | drug sensitivity score (Vero E6 [15])
Nc1nc(OCc2ccccc2)c2nc[nH]c2n1 [O6-benzylguanine] | 105% | 95.2% | 98% | 98.7% | 106% | 103% | 89.5% | 107% | 88.1% | 105% | 95.9% | 105% | 96.8% | 108% | 94.6% | 101% | 99.9% | 100% | 97.3% | 104% | 93.6% | 108% | 87.3% | 103% | 90.4% | > 10 µM | > 10 µM | > 10 µM | > 10 µM | > 10 µM | 0 | 0 | 0 | 0 | 0
O=C1C(=Cc2cccnc2)C(=O)c2ccccc21 [PRT4165] | 107% | 86.5% | 101% | 87.1% | 98.2% | 104% | 103% | 98.4% | 97.4% | 95.6% | 113% | 98.5% | 92.1% | 103% | 87.6% | 102% | 98.9% | 99.1% | 99.6% | 98.3% | 96.1% | 99% | 103% | 98.4% | 87.6% | > 10 µM | > 10 µM | > 10 µM | > 10 µM | > 10 µM | 0 | 0 | 0 | 0 | 0.2
COc1ccc(S(=O)(=O)Nc2nc(-c3cccc([N+](=O)[O-])c3)cs2)cc1OC [Ro-61-8048] | 133% | 90.8% | 110% | 124% | 95.8% | 107% | 89.5% | 103% | 97.9% | 124% | 107% | 86.1% | 101% | 102% | 106% | 98.6% | 93.5% | 99.4% | 100% | 106% | 101% | 97.2% | 85.1% | 102% | 97.9% | > 10 µM | > 10 µM | > 10 µM | > 10 µM | > 10 µM | 0 | 0 | 0 | 0 | 0
Cc1ccc(S(=O)(=O)N2CCC[C@H]2c2ccc(F)cc2)cc1 [Ro-67-7476] | 96.6% | 102% | 102% | 97.3% | 104% | 106% | 101% | 94.4% | 98.1% | 105% | 106% | 104% | 96.2% | 102% | 97.4% | 98.8% | 95.1% | 107% | 99.4% | 99.2% | 109% | 104% | 94.1% | 104% | 100% | > 10 µM | > 10 µM | > 10 µM | > 10 µM | > 10 µM | 0 | 0 | 0 | 0 | 0
